Two compounds from ChEMBL document CHEMBL5356947, “Mitochondria-targeted biotin-conjugated BODIPYs for cancer imaging and therapy” (RSC Med Chem, 2023) can be followed below.

What is called IC50 is the concentration that gives 50% inhibition.

One series has as its system HCT-116. The experiment in a line: Photocytotoxicity against human HCT-116 cells assessed as inhibition of cell growth incubated for 24 hrs by MTT assay. The following applies: HCT-116, 24 h. Format: functional, cell-based. (In general: Tetrazolium assays rely on reduction of a dye to a coloured formazan, in cell work by metabolically active cells.)
For series [1], the system named is MDA-MB-231. The series is described as follows: Induction of apoptosis in human MDA-MB-231 cells assessed as late apoptotic cells at 30 nM incubated for 24 hrs under dark condition by Annexin V-FITC/PI staining based flow cytometric analysis relative to control. Type of series: functional.
A short description of series [2]: Emission property of the compound by fluorescence spectrophotometer analysis. Type of series: physicochemical.
The nature of series [3]: Photosensitizing ability of the compound in MeOH assessed as singlet oxygen generation at 408 nm measured upto 120 sec by DPBF based assay. Format: functional.
The test system of series [4] is MDA-MB-231. The experiment in a line: Cell cycle arrest in human MDA-MB-231 cells assessed as accumulation of cells at S phase incubated for 24 hrs by RNase A/PI staining based flow cytometric analysis relative to control. Format: functional. A general note: Flow cytometry measures light scatter and fluorescence of single cells or particles in a stream.
The nature of series [5]: Drug localization in mitochondria of human MDA-MB-231 cells incubated for 1 hrs by Mitotracker deep red/Hoechst staining based confocal microscopic analysis. Type of series: ADME. As to conditions: mda-mb-231, 1 h; call rule not given here.
Series [6] concerns MDA-MB-231. The experiment in a line: Cell cycle arrest in human MDA-MB-231 cells assessed as accumulation of cells at G1 phase incubated for 24 hrs by RNase A/PI staining based flow cytometric analysis relative to control. Type of series: functional.
Series [7] is described as follows: Fluorescence property of the compound assessed as fluorescence quantum yield in EtOH. Type of series: physicochemical.
The nature of series [8]: Absorption property of the compound by UV-vis spectrophotometer. Format: physicochemical.
Series [9] deals with MDA-MB-231. The series is described as follows: Induction of apoptosis in human MDA-MB-231 cells assessed as late apoptotic cells at 30 nM preincubated with compound for 24 hrs followed by 540 nm light irradiation for 1 hrs by Annexin V-FITC/PI staining based flow cytometric analysis (reference value: 17.1%). The following applies: time 25 hrs. Format: functional.
In series [10] the test system is MDA-MB-231. The experiment in a line: Induction of apoptosis in human MDA-MB-231 cells assessed as necrotic cells at 30 nM preincubated with compound for 24 hrs followed by 540 nm light irradiation for 1 hrs by Annexin V-FITC/PI staining based flow cytometric analysis (reference value: 2.7%). Type of series: functional. As to conditions: time 25 hrs.
Series [11] has as its system MDA-MB-231. The experiment in a line: Induction of oxidative stress on human MDA-MB-231 cells assessed as increase in ROS population incubated for 24 hrs under dark condition by CM-H2DCFDA staining based analysis relative to control. Format: functional.
Series [12] concerns MDA-MB-231. The series is described as follows: Induction of oxidative stress on human MDA-MB-231 cells assessed as increase in ROS population at 60 nM preincubated with compound for 24 hrs followed by 540 nm light irradiation for 1 hrs by CM-H2DCFDA staining based analysis (reference value: 2.5%). Type of series: functional. As to conditions: time 25 hrs.
Series [13] has as its system MDA-MB-231. The series is described as follows: Cell cycle arrest in human MDA-MB-231 cells assessed as accumulation of cells at G2/M phase at 60 nM preincubated with compound for 15 mins followed by light irradiation and measured after 3 to 24 hrs by RNase A/PI staining based flow cytometric analysis (reference value: 12.9%). Type of series: functional. The following applies: time 195-1455 min.

The nature of series [14]: Absorption property of the compound assessed as decay lifetime. Format: physicochemical.
Series [15] in a line: Photocytotoxicity against human MCF-10A cells assessed as inhibition of cell growth incubated for 24 hrs by MTT assay. Format: toxicity, cell-based.
Series [16] deals with MDA-MB-231. The series is described as follows: Induction of apoptosis in human MDA-MB-231 cells assessed as necrotic cells at 30 nM incubated for 24 hrs under dark condition by Annexin V-FITC/PI staining based flow cytometric analysis relative to control. Type of series: functional.
Series [17] relates to MDA-MB-231. The experiment in a line: Cell cycle arrest in human MDA-MB-231 cells assessed as accumulation of cells at S phase at 30 nM preincubated with compound for 15 mins followed by light irradiation and measured after 3 to 24 hrs by RNase A/PI staining based flow cytometric analysis (reference value: 16.4%). Format: functional. As to conditions: time 195-1455 min.
For series [18], the system named is MDA-MB-231. The experiment in a line: Cell cycle arrest in human MDA-MB-231 cells assessed as accumulation of cells at S phase at 60 nM preincubated with compound for 15 mins followed by light irradiation and measured after 3 to 24 hrs by RNase A/PI staining based flow cytometric analysis (reference value: 16.4%). The following applies: time 195-1455 min. Format: functional.

Series [19] concerns MDA-MB-231. The experiment in a line: Induction of apoptosis in human MDA-MB-231 cells assessed as early apoptotic cells at 60 nM preincubated with compound for 24 hrs followed by 540 nm light irradiation for 1 hrs by Annexin V-FITC/PI staining based flow cytometric analysis (reference value: 19.2%). Format: functional. As to conditions: time 25 hrs.
In series [20] the test system is MDA-MB-231. The experiment in a line: Cell cycle arrest in human MDA-MB-231 cells assessed as accumulation of cells at G2/M phase at 30 nM preincubated with compound for 15 mins followed by light irradiation and measured after 3 to 24 hrs by RNase A/PI staining based flow cytometric analysis (reference value: 12.9%). Type of series: functional. The following applies: time 195-1455 min.

In series [21] the test system is MDA-MB-231. The experiment in a line: Induction of apoptosis in human MDA-MB-231 cells assessed as early apoptotic cells at 30 nM preincubated with compound for 24 hrs followed by 540 nm light irradiation for 1 hrs by Annexin V-FITC/PI staining based flow cytometric analysis (reference value: 19.2%). Type of series: functional. The following applies: time 25 hrs.

The test system of series [22] is MDA-MB-231. The experiment in a line: Induction of oxidative stress on human MDA-MB-231 cells assessed as increase in ROS population at 30 nM preincubated with compound for 24 hrs followed by 540 nm light irradiation for 1 hrs by CM-H2DCFDA staining based analysis (reference value: 2.5%). Format: functional. The following applies: time 25 hrs.
The test system of series [23] is MDA-MB-231. The experiment in a line: Cell cycle arrest in human MDA-MB-231 cells assessed as accumulation of cells at G1 phase at 60 nM preincubated with compound for 15 mins followed by light irradiation and measured after 3 to 24 hrs by RNase A/PI staining based flow cytometric analysis (reference value: 65.7%). Type of series: functional. As to conditions: time 195-1455 min.

In the next series the test system is MCF7. The series is described as follows: Photocytotoxicity against human MCF7 cells assessed as inhibition of cell growth incubated for 24 hrs by MTT assay. Format: functional, cell-based. The following applies: MCF7, 24 h.
Series [24] has as its system MDA-MB-231. The experiment in a line: Induction of apoptosis in human MDA-MB-231 cells assessed as early apoptotic cells at 30 nM incubated for 24 hrs under dark condition by Annexin V-FITC/PI staining based flow cytometric analysis relative to control. Format: functional.
The nature of series [25]: Absorption property of the compound assessed as triplet quantum yield by UV-vis spectrophotometer. Type of series: physicochemical.
Series [26] can be described thus: Absorption property of the compound assessed as molar extinction co-effecient by UV-vis spectrophotometer. Type of series: physicochemical.
The subject of a further series is HT-29. The experiment in a line: Photocytotoxicity against human HT-29 cells assessed as inhibition of cell growth incubated for 24 hrs by MTT assay. Type of series: functional, cell-based. As to conditions: HT-29, 24 h.
The subject of series [27] is MDA-MB-231. The experiment in a line: Induction of apoptosis in human MDA-MB-231 cells assessed as late apoptotic cells at 60 nM preincubated with compound for 24 hrs followed by 540 nm light irradiation for 1 hrs by Annexin V-FITC/PI staining based flow cytometric analysis (reference value: 17.1%). Format: functional. As to conditions: time 25 hrs.
For series [28], the system named is MDA-MB-231. The experiment in a line: Cell cycle arrest in human MDA-MB-231 cells assessed as accumulation of cells at G2/M phase incubated for 24 hrs by RNase A/PI staining based flow cytometric analysis relative to control. Type of series: functional.
The test system of series [29] is MDA-MB-231. The series is described as follows: Photocytotoxicity against human MDA-MB-231 cells assessed as inhibition of cell growth incubated for 24 hrs by MTT assay. Format: functional, cell-based. The following applies: MDA-MB-231, 24 h.
Series [30] concerns MDA-MB-231. The experiment in a line: Induction of apoptosis in human MDA-MB-231 cells assessed as necrotic cells at 60 nM preincubated with compound for 24 hrs followed by 540 nm light irradiation for 1 hrs by Annexin V-FITC/PI staining based flow cytometric analysis (reference value: 2.7%). Format: functional. As to conditions: time 25 hrs.
Series [31] deals with MDA-MB-231. The series is described as follows: Cell cycle arrest in human MDA-MB-231 cells assessed as accumulation of cells at G1 phase at 30 nM preincubated with compound for 15 mins followed by light irradiation and measured after 3 to 24 hrs by RNase A/PI staining based flow cytometric analysis (reference value: 65.7%). The following applies: time 195-1455 min. Type of series: functional.

Molecules are shown by their SMILES.

For `CC1=C(I)C(C)=[N+]2C1=C(c1ccc(OCc3cn(CCOCCOCCOCCOCCNC(=O)CCCCC4SCC5NC(=O)NC54)nn3)cc1)c1c(C)c(I)c(C)n1[B-]2(F)F` (stereo not given), the 50% inhibitory concentration (IC50) with HCT-116 was 74.9 nM; with MCF7 it was 54.1 nM; with HT-29, 88.2 nM; in the series on MDA-MB-231 [29], 52.2 nM. The Activity with MDA-MB-231 [1] amounted to 11.5%; in series [2], 549 nm; in series [3] it was 0.34; in the series with MDA-MB-231 [4] it was 18.1%; in the series on MDA-MB-231 [6], 63.3%; in series [7], 0.039. The Activity in series [8] stood at 533 nm; with MDA-MB-231 [9], 11.2%; with MDA-MB-231 [10], 12.1%; in the series with MDA-MB-231 [11] it was 5.9%; in the series with MDA-MB-231 [12], 92.4%; in the series with MDA-MB-231 [13], 22%. The Activity is listed as 5.8% in the series on MDA-MB-231 [16]; 14.6% in the series on MDA-MB-231 [17]; 15.5% in the series with MDA-MB-231 [18]; 4.5% in the series on MDA-MB-231 [19]; 19.2% with MDA-MB-231 [20]; 10.5% in the series on MDA-MB-231 [21]. In addition, the Activity in the series with MDA-MB-231 [22] amounted to 92.3%; in the series with MDA-MB-231 [23], 58.7%; in the series on MDA-MB-231 [24] it was 5.6%; in [25], 0.44; in [26], 91000 M⁻¹ cm⁻¹; in the series on MDA-MB-231 [27] it was 34.1%. The Activity with MDA-MB-231 [28] worked out at 13.3%; in the series with MDA-MB-231 [30], 40.1%; with MDA-MB-231 [31], 63%. Moreover, the Drug uptake entry in series [5] is “Active”. The Time in series [14] is given as 2.5 microsec. The 50% inhibitory concentration (IC50) at 24 h in [15] worked out at 177 nM.

Turning to `O=C1OC2(c3cc(I)c(O)c(I)c3Oc3c2cc(I)c(O)c3I)c2c(Cl)c(Cl)c(Cl)c(Cl)c21`, the Activity in series [3] is 0.75.
